Usually IC50 stands for the midpoint of a concentration-inhibition curve.

The source made the active and inactive calls. The rule behind the calls is not given here. Some results are limits rather than exact numbers.

The source of these data is ChEMBL document CHEMBL3627688, “Structure-based hybridization, synthesis and biological evaluation of novel tetracyclic heterocyclic azathioxanthone analogues as potential antitumor agents” (Eur J Med Chem, 2015).

In test [1] the target is DNA topoisomerase 1 (Homo sapiens) (UniProt P11387). Nature of the test: Inhibition of human recombinant topoisomerase 1 assessed as blocking of supercoiled pHOT DNA relaxation at 50 uM incubated for 25 mins at 37 degC by ethidium bromide staining based agarose gel electrophoresis.
Test [2] concerns DU-145. Nature of the test: Antiproliferative activity against human DU145 cells assessed as cell viability incubated for 72 hrs by MTT assay. The test is classed as functional, cell-based. The following applies: DU-145, 72 h.
For test [3], the system named is PC-3. The experiment in a line: Antiproliferative activity against human PC3 cells assessed as cell viability incubated for 72 hrs by MTT assay. The test is classed as functional, cell-based. The following applies: PC-3, 72 h. (Tetrazolium assays rely on reduction of a dye to a coloured formazan, in cell work by metabolically active cells.)
The target in test [4] is DNA topoisomerase 2-alpha (Homo sapiens) (UniProt P11388). Nature of the test: Inhibition of human recombinant topoisomerase 2 alpha assessed as blocking of supercoiled pHOT DNA relaxation at 50 uM incubated for 45 mins at 37 degC by ethidium bromide staining based agarose gel electrophoresis.
Chain of DNA topoisomerase 2-alpha (Homo sapiens) (P11388 whole entry): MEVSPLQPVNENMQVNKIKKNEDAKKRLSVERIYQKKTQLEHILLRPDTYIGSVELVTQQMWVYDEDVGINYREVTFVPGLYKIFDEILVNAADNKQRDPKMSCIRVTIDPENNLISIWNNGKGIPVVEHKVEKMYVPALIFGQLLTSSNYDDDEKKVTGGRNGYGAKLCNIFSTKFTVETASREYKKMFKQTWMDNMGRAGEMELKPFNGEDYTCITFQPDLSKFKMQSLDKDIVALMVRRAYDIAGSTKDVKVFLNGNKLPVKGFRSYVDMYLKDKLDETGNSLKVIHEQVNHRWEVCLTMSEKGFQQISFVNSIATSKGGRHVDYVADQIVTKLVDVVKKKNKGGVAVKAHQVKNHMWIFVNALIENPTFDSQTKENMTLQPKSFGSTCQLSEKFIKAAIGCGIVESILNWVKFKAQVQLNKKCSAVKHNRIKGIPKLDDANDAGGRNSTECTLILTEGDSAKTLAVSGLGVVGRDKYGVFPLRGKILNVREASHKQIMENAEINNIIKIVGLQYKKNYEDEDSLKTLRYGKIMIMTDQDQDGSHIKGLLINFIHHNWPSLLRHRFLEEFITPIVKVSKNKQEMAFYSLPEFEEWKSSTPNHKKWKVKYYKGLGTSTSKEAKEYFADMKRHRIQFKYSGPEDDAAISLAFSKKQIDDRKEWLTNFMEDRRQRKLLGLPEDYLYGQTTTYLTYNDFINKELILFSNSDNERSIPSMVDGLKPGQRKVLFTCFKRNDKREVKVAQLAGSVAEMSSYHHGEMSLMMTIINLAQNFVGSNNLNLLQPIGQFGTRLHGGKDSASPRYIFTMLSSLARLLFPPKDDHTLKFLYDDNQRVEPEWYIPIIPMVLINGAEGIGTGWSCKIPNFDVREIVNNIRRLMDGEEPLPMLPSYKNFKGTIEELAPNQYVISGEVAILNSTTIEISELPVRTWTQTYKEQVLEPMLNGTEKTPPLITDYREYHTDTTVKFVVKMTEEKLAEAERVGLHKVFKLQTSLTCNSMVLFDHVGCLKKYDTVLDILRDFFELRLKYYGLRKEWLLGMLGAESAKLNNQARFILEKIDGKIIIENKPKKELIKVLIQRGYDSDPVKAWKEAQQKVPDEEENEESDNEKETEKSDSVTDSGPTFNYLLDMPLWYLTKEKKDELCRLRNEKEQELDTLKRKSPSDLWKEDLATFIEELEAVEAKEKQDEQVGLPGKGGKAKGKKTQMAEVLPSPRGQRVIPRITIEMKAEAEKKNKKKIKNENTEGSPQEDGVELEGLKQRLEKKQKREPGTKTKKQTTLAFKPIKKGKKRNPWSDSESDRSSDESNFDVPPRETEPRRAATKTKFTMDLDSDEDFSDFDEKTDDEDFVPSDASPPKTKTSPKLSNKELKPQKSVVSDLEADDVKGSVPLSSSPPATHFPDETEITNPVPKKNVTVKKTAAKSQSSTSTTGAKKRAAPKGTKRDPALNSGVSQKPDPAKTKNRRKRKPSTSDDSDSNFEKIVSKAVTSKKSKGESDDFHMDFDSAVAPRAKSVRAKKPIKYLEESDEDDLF

Chain of DNA topoisomerase 1 (Homo sapiens) (P11387 whole entry): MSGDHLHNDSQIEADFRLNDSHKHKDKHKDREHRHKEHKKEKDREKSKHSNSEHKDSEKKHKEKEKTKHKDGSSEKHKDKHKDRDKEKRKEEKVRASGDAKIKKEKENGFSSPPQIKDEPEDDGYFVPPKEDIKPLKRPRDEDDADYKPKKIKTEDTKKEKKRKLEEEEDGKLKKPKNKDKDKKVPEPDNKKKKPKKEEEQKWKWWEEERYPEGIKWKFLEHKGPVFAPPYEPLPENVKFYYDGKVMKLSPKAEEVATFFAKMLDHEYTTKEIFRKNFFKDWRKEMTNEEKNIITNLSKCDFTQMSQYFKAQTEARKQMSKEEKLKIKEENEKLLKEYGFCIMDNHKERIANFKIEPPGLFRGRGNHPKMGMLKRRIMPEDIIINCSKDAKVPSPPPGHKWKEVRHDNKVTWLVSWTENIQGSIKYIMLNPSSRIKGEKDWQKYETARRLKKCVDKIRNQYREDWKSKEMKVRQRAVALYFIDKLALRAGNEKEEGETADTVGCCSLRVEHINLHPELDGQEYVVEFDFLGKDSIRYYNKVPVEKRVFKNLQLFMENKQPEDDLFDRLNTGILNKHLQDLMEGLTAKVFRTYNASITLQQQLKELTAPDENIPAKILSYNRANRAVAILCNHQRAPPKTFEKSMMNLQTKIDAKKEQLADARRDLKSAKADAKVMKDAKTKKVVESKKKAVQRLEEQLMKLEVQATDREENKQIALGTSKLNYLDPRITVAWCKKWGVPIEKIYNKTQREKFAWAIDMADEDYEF

Turning to `O=c1c2cc(Cl)ccc2sc2c(N3CCC(CCCC4CCNCC4)CC3)nc3ccccc3c12`, in test [1], the inhibition entry was “Active”. Besides, the IC50 worked out at 9.02 µM in test [2] and 6.36 µM in test [3].
For `CC[C@@]1(O)C(=O)OCc2c1cc1n(c2=O)Cc2cc3ccccc3nc2-1` [CAMPTOTHECIN], the IC50 in test [2] and in test [3] was 0.1 µM each time.
In the case of `O=c1c2cc(Cl)ccc2sc2c(N3CCC(N4CCCCC4)CC3)nc3ccccc3c12`, the IC50 in test [2] is 10.2 µM; in test [3] it was 14.2 µM.
As to `O=c1c2cc(Cl)ccc2sc2c(N3CCC(Cc4ccccc4)CC3)nc3ccccc3c12`, the IC50 in test [2] and in test [3] was greater than 15 µM each time.
`O=c1c2cc(Cl)ccc2sc2c(N3CCCC3)nc3ccccc3c12`: the IC50 in test [2] and in test [3] was greater than 15 µM each time.
Take `O=c1c2cc(Cl)ccc2sc2c(N3CCCCC3)nc3ccccc3c12`: the IC50 in test [2] was 13.4 µM; in test [3], greater than 15 µM.
Consider `O=c1c2cc(Cl)ccc2sc2c(N3CCSCC3)nc3ccccc3c12`, for which the IC50 in test [2] and in test [3] was greater than 15 µM throughout.
For `O=c1c2cc(Cl)ccc2sc2c(N3CCC(O)CC3)nc3ccccc3c12`, the inhibition result in test [1] is “Active”. Further, the figures for the IC50 in test [2] and in test [3] were 11.1 µM and 9.55 µM, respectively.
Consider `COc1cccc2c1C(=O)c1c(O)c3c(c(O)c1C2=O)C[C@@](O)(C(=O)CO)C[C@@H]3O[C@H]1C[C@H](N)[C@H](O)[C@H](C)O1` [DOXORUBICIN], for which, in test [2], the IC50 is 0.12 µM.
For the compound `COc1cc([C@@H]2c3cc4c(cc3[C@@H](O[C@@H]3O[C@@H]5CO[C@@H](C)O[C@H]5[C@H](O)[C@H]3O)[C@H]3COC(=O)[C@H]23)OCO4)cc(OC)c1O` [ETOPOSIDE], the inhibition entry in test [4] is “Active”. Further, the IC50 amounted to 0.4 µM in test [2] and 4.33 µM in test [3].
